This note sets out measurements from patent publication US8927723B2, “Preparation of pyridonecarboxylic acid antibacterials” (AbbVie, Inc., priority 2004, dated 2015).

A short description of the data set: solubility of compounds having formula (VII) in ethyl acetate. The following applies: organic solvent or mixture.

In brackets after ≈: the same amount, converted by molar mass.

`CCOC(=O)c1cn(-c2nc(N)c(F)cc2F)c2cc(N3CC(OC(=O)C(C)C)C3)c(F)cc2c1=O` [CH(CH3)2, ethyl 1-(6-amino-3,5-difluoropyridin-2-yl)-6-fluoro-7-(3-(isobutyryloxy)azetidin-1-yl)-4-oxo-1,4-dihydroquinoline-3-carboxylate]: the solubility was determined as 6400 µg/mL (≈ 12.7 mM).
